Results reported in paper PMC7010297, “How the initiating ribosome copes with ppGpp to translate mRNAs” (PLoS Biology, 2020).
Values joined by “and” are separate entries in the source; they are usually repeats but may differ in a detail not shown here. Equal entries are not always repeated.

B1: mTufA: TufA mRNA with full-length 5′ UTR, in vitro transcribed, codes for EF-Tu (nucleic acid)
chain: GGUUCUAUCGCCUUUAAAGAAGGCUUUAAGAAAGCGAAACCAGUUCUGCUUGAGCCGAUCAUGAAGGUUGAAGUAGAAACUCCGGAAGAGAACACCGGUGACGUUAUCGGUGACUUGAGCCGUCGUCGUGGUAUGCUCAAAGGUCAGGAAUCUGAAGUUACUGGCGUUAAGAUCCACGCUGAAGUACCGCUGUCUGAAAUGUUCGGAUACGCAACUCAGCUGCGUUCUCUGACCAAAGGUCGUGCAUCAUACACUAUGGAAUUCCUGAAGUAUGAUGAAGCGCCGAGUAACGUUGCUCAGGCCGUAAUUGAAGCCCGUGGUAAAUAAGCCUAAGGGUUAAUACCAAAGUCCCGUGCUCUCUCCUGAAGGGGAGAGCACUAUAGUAAGGAAUAUAGCCGUGUCUAAAGAAAAAUUUGAACG

Columns and labels:
[1] = molecular target: T1, 70S pre-IC (50S joining to 30S IC) (Escherichia coli, UniProt P0A705); assay: 70S pre-IC formation by light scattering, stopped-flow; format: biochemical; parameters: K1, best-fit value / k2, best-fit value: unit not given here; settings: for kfast (s-1) Avg: light scattering
T1 construct: 6xHis (N); made in house
Experimental: (§1) Continuous lines indicate nonlinear regression fittings with a quadratic equation. Three measurements were performed; mean and standard deviation are plotted (S1 Data). (B) as (A) to measure the concentration dependence for each tested guanosine nucleotide at constant IF2 (1 μM). […] Continuous lines show best fits using exponential functions. (D) Formation of 70S IC as measured by Bpy-tRNAi accommodation in the P site of the ribosome; 0.1 μM 30S ICs were formed with Bpy-tRNAi and rapidly mixed with 0.3 μM 50S subunits on a stopped-flow apparatus as described in [14]. Colors are as in (C). Continuous lines show best fits using an exponential function for a single reaction step. Each stopped-flow trace results from the mean of 5 to 7 replicates.
(§2) (A) Scheme of 70S IC formation. […] Time traces were analyzed by nonlinear regression with exponential terms. […] Formation of 70S IC, as measured by Bpy-tRNAi accommodation in the absence (F) or presence of 200 μM ppGpp (G). Time traces were analyzed by nonlinear regression with one exponential term. […] Continuous lines show best fits using an exponential function for a single reaction step. All time traces are mean values of 5 to 10 replicates. Bar graphs show mean and standard errors (error bars) derived from the nonlinear regression fitting (D,E,H,I) (S1 Data).
(§3) To measure 70S pre-IC formation, a SX-20 stopped-flow instrument (Applied Photophysics, Leatherhead, UK) was set up for LS recording with an excitation wavelength of 430 nm. Scattered light was measured at an angle of 90° without a filter. Pseudo first-order conditions were approximated by using ≥3-fold excess of 50S subunits over 30S ICs; 0.2 μM 30S ICs were rapidly mixed in the instrument with 0.6 μM 50S at 25 °C. Bpy-tRNAi accommodation was measured essentially as described elsewhere. Briefly, 0.2 μM 30S ICs were formed using Bpy-tRNAi and rapidly mixed with 0.6 μM 50S at 25 °C. Fluorescence was excited at 470 nm and measured after a 495-nm longpass filter. Individual traces (6–11 traces) were averaged, and the resulting kinetic curve was approximated by single (F = A0 + A1*exp (-kapp1*t)) or double (F = A0 + A1*exp (-kapp1*t) + A2*exp (-kapp2*t)) exponential fit using Graphpad Prism 6.0 software (GraphPad, San Diego, California).

70S IC = molecular target: T2, 70S IC (Escherichia coli, UniProt P0A705); assay: 70S IC formation by Bpy-tRNAi accommodation, stopped-flow; format: biochemical; parameters: K1, best-fit value: unit not given here; settings: for A0, best-fit value / A1, best-fit value / K1, best-fit value / k2, best-fit value: fit Y=A0+A1*exp(-K1*x)+k2*x; for kfast (s-1) Avg: fluorescence
T2 construct: 6xHis (N); made in house
Experimental: as §1, §2, §3

[2] = tested on: mRNA translation (protein synthesis); assay: In vitro translation in pure cell-free system (PURExpress, Lumio labelling); format: biochemical
Experimental: Fig 5 Permissive ppGpp-mediated inhibition of mRNA translation. (A) Scheme of the translating 70S complex. (B) In vitro translation of mTufA and mInfA derivatives harboring a coding sequence for the Lumio labelling system (Experimental conditions and analysis). […] Synthetized proteins were fluorescently labelled and resolved by 20% SDS-PAGE. The resulting images were analyzed by pixel densitometry using ImageJ [37] to estimate translation efficiencies (TEs). […] (D) Comparison of inhibitory constants for both mRNAs as measured during 30S IC formation (white) or overall translation efficiency (gray). Mean and standard deviations from three measurements are plotted (S1 Data). GTP, guanosine triphosphate; mInfA, InfA mRNA; mTufA, TufA mRNA; TE, translation efficiency.
In order to visualize overall protein synthesis, we used a coupled transcription-translation cell-free system. Reactions were carried out in 10 μL of the purified components from the PURExpress In Vitro Protein Synthesis Kit (E6800S/L, NEB, Ipswich, Massachusetts) with the corresponding templates. These reactions were incubated at 37°C for 2 hours. […] After incubation, sample processing and fluorescent labelling were carried out as described by the Lumio Green Detection Kit (LC6090, ThermoScientific, Waltham, Massachusetts) for in vitro reactions. Finally, 20 μL of labelled samples were loaded into 20% SDS-PAGE gels and visualized under a Blue-light LED transilluminator with orange filter (Cleaver Scientific LTD, Warwickshire, UK). Gel quantification was performed by pixel densitometry analysis using ImageJ software.

30S IC = 30S IC (Escherichia coli, UniProt P0A705); assay: ppGpp tolerance of 30S IC formation by MST; format: binding; parameters: 6xHis (N); made in house; settings: 30S ICs with 4-fold excess of ppGpp (0.2 mM) over GTP vs without alarmone
Experimental: Fig 7 SETIs and ppGpp tolerance. (A) Translation initiation efficiency as a function of mRNAs along five steps of transition from NS to S conditions. […] Symbols and error bars represent averages of three replicates and standard deviations, respectively (S1 Data). (C) Comparison of ppGpp tolerance as calculated from the ratio of translation initiation efficiencies found in the presence of 0.2 mM ppGpp over the efficiencies obtained in the absence of the alarmone (S1 Data). […] All 30S IC components are as in Fig 1. Dashed line indicates the average tolerance of all mRNAs lacking the SETI element.

[3] = mInfA, fit Y=A0+A1*exp(-K1*x)+k2*x
[4] = mMF1, fit Y=A0+A1*exp(-K1*x)+k2*x
[5] = mTufA, fit Y=A0+A1*exp(-K1*x)+k2*x

T1 sequence (P0A705 whole entry, looked up): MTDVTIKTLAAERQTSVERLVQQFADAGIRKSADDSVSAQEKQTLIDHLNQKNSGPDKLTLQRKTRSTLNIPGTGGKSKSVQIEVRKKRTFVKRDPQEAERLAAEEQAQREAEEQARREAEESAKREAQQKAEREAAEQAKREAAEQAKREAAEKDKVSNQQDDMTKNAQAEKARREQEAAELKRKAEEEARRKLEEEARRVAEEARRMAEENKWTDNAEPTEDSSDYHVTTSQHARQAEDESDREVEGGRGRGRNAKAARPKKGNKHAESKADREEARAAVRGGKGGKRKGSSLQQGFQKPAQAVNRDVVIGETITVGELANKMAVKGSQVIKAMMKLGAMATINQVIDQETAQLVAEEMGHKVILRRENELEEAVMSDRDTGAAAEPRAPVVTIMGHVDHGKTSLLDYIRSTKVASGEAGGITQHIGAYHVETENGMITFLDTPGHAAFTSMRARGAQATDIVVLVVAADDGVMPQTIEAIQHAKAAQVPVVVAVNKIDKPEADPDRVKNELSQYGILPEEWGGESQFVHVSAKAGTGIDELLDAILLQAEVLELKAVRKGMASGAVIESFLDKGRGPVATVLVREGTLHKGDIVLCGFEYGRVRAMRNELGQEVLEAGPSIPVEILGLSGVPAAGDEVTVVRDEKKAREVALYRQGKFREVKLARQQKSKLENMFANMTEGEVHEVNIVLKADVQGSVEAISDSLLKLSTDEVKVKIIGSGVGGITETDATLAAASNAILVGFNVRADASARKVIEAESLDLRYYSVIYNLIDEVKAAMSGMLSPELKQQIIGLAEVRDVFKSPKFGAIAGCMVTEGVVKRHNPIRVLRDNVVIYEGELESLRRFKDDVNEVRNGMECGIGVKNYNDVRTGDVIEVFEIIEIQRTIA
T2 sequence (P0A705 whole entry, looked up): as above

| Molecule | A0, best-fit value [1, 3] | K1, best-fit value [1, 3] | k2, best-fit value [1, 3] | A0, best-fit value [1, 4] | K1, best-fit value [1, 4] | k2, best-fit value [1, 4] | LS amplitude (a.u.) Avg ([1]; mRNA mInfA) [a.u.] | LS amplitude (a.u.) Avg ([1]; mRNA mMF1) [a.u.] | kfast (s-1) Avg ([1]; mRNA mMF1) [s⁻¹] | LS amplitude (a.u.) Avg ([1]; mRNA mTufA) [a.u.] | kfast (s-1) Avg ([1]; mRNA mTufA) [s⁻¹] | A0, best-fit value [1, 5] | K1, best-fit value [1, 5] | k2, best-fit value [1, 5] | A0, best-fit value (70S IC; mInfA) | A1, best-fit value (70S IC; mInfA) | K1, best-fit value (70S IC; mInfA) | k2, best-fit value (70S IC; mInfA) | A0, best-fit value (70S IC; mMF1) | A1, best-fit value (70S IC; mMF1) | other results |
| --- | --- | --- | --- | --- | --- | --- | --- | --- | --- | --- | --- | --- | --- | --- | --- | --- | --- | --- | --- | --- | --- |
| Nc1nc2c(ncn2[C@@H]2O[C@H](COP(=O)(O)OP(=O)(O)OP(=O)(O)O)[C@@H](O)[C@H]2O)c(=O)[nH]1 [GTP, guanosine triphosphate] | 1.08 | 1.97 | 0.0017 and 0.00173 | 1.05 | 1.98 | 0.000317 | 0.062 | 0.035 | 1.98 | 0.083 | 5.20 | 1.11 | 5.20 | 0.000653 | 0.90 | 0.11 | 1.58 | -0.00193 | 0.90 | 0.10 | kapp of 70S pre-IC formation (LS) ([1]; 30S complexes formed with 0.2 mM nucleotide, mixed with 50S subunits): 2.9 ± 0.3 s^–1; A1, best-fit value [1, 4]: -0.035; kapp of Bpy-tRNAi accommodation (70S IC formation) (70S IC; 30S ICs formed with 0.2 mM nucleotide, mixed with 50S subunits): 2.4 ± 0.2 s^–1; K1, best-fit value (70S IC; mMF1): 1.49; k2, best-fit value (70S IC; mMF1): -1.6e-5; Fluorescence Amplitude Avg (70S IC; mRNA mInfA): 0.108; kfast (s-1) Avg (70S IC; mRNA mInfA): 1.58 s⁻¹; Fluorescence Amplitude Avg (70S IC; mRNA mMF1): 0.103; kfast (s-1) Avg (70S IC; mRNA mMF1): 1.49 s⁻¹; Fluorescence Amplitude Avg (70S IC; mRNA mTufA): 0.145; kfast (s-1) Avg (70S IC; mRNA mTufA): 2.69 s⁻¹; A0, best-fit value (70S IC; mTufA): 0.86; A1, best-fit value (70S IC; mTufA): 0.15; K1, best-fit value (70S IC; mTufA): 2.69; k2, best-fit value (70S IC; mTufA): -0.00034 |
| Nc1nc2c(ncn2[C@@H]2O[C@H](COP(=O)(O)OP(=O)(O)O)[C@@H](O)[C@H]2O)c(=O)[nH]1 [GDP, guanosine diphosphate] | 1.03 | 1.58 | 0.0017 and 0.00169 | 1.04 | 2.79 | 0.001 | 0.028 | 0.027 | 2.79 | 0.058 | 3.39 | 1.07 | 3.39 | 0.0016 and 0.00162 | 0.98 | 0.0231 | 1.28 | -0.00069 | 0.93 | 0.07 | efficiency (amplitude) of 70S pre-IC formation ([1]; 0.2 mM nucleotide, no GTP): reduced efficiencies; rapid 70S pre-IC formation in the absence of GTP ([1]; 0.2 mM nucleotide, noncompetitive (S6 Fig)): some transitions; kfast (s-1) Avg ([1]; mRNA mInfA): 1.58 s⁻¹; efficiency (amplitude) of 70S IC formation (Bpy-tRNAi accommodation) (70S IC; 0.2 mM nucleotide, no GTP): reduced efficiencies; K1, best-fit value (70S IC; mMF1): 1.57; k2, best-fit value (70S IC; mMF1): -0.00092; Fluorescence Amplitude Avg (70S IC; mRNA mInfA): 0.023; kfast (s-1) Avg (70S IC; mRNA mInfA): 1.28 s⁻¹; Fluorescence Amplitude Avg (70S IC; mRNA mMF1): 0.067; kfast (s-1) Avg (70S IC; mRNA mMF1): 1.57 s⁻¹; Fluorescence Amplitude Avg (70S IC; mRNA mTufA): 0.062; kfast (s-1) Avg (70S IC; mRNA mTufA): 2.65 s⁻¹; A0, best-fit value (70S IC; mTufA): 0.94; A1, best-fit value (70S IC; mTufA): 0.06; K1, best-fit value (70S IC; mTufA): 2.65; k2, best-fit value (70S IC; mTufA): -0.00072 |
| B1 |  |  |  |  |  |  |  |  |  |  |  |  |  |  |  |  |  |  |  |  | Translation Avg ([2]; 2 mM ppGpp, Fig 6G): 0.27 a.u.; Translation Avg ([2]; No ppGpp, Fig 6G): 0.83 a.u.; Translation Replicate ([2]; No ppGpp, Fig 6G): 0.83 a.u.; translation higher than mInfA ([2]; in the absence of ppGpp): 3 fold; ppGpp tolerance (30S IC): up to 25% |
